One may read the Emax as the size of the effect at its maximum, as opposed to the concentration needed. By EC50 is commonly meant the concentration needed to bring the measured effect to its halfway point.

The structures appear in SMILES notation.

Experiment [1] deals with T1, Probable G-protein coupled receptor 139 (Homo sapiens) (UniProt Q6DWJ6).
T1 sequence (whole entry): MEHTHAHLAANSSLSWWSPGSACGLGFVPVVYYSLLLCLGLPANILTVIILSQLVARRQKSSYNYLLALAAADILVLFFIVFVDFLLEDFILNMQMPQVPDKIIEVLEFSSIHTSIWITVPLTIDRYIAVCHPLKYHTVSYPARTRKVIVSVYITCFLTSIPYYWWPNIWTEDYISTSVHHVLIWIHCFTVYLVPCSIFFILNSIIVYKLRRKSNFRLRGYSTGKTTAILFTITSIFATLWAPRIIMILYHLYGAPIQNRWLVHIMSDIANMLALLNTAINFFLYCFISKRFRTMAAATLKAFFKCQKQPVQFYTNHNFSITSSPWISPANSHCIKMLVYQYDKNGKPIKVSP
Briefly: Agonist activity at human GPR139 expressed in CHO-K1 cells assessed as induction of beta-arrestin 2 recruitment incubated for 90 mins by PathHunter assay relative to JNJ63533054. The experiment is classed as cell-based. Background: Activated receptors often draw arrestin, which recruitment assays turn into a signal.

For experiment [2], the target named is T2, Probable G-protein coupled receptor 139 (Rattus norvegicus) (UniProt P0C0W8).
T2 sequence (whole entry): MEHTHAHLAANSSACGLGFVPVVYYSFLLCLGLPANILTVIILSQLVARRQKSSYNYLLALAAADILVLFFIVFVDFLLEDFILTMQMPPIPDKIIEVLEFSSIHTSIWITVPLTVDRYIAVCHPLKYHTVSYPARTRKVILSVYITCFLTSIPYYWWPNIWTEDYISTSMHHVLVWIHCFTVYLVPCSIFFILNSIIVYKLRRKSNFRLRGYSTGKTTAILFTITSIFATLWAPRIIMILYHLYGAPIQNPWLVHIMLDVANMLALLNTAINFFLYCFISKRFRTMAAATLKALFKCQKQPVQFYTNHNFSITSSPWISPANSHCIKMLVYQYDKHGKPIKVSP
As to the kind of experiment: Agonist activity at rat GPR139 expressed in CHO-K1 cells assessed as increase in calcium flux by calcium 5 dye based FLIPR assay relative to JNJ63533054. The experiment is classed as cell-based. (In general: A change in cytosolic calcium serves as a functional read-out for many receptors and channels.)

The target in experiment [3] is T3, Probable G-protein coupled receptor 139 (Homo sapiens, UniProt Q6DWJ6).
T3 sequence (Q6DWJ6 whole entry): T1 sequence (whole entry)
Briefly: Agonist activity at human GPR139 expressed in CHO-K1 cells assessed as increase in calcium flux by calcium 5 dye based FLIPR assay. It counts as functional, cell-based.

The target in experiment [4] is T4, Probable G-protein coupled receptor 139 (Rattus norvegicus, UniProt P0C0W8).
T4 sequence (P0C0W8 whole entry): T2 sequence (whole entry)
Briefly: Agonist activity at rat GPR139 expressed in CHO-K1 cells assessed as increase in calcium flux by calcium 5 dye based FLIPR assay. The experiment is classed as cell-based.

The target of experiment [5] is T3, Probable G-protein coupled receptor 139. As to the kind of experiment: Agonist activity at human GPR139 expressed in CHO-K1 cells assessed as induction of beta-arrestin 2 recruitment incubated for 90 mins by PathHunter assay. It counts as cell-based.
Experiment [6] deals with T1, Probable G-protein coupled receptor 139 (Homo sapiens). Briefly: Agonist activity at human GPR139 expressed in CHO-K1 cells assessed as increase in calcium flux by calcium 5 dye based FLIPR assay relative to JNJ63533054. It counts as functional, cell-based. The settings on record: filed as agonist.

In the case of `C[C@H](NC(=O)Cn1nc2ccc(F)cn2c1=O)c1ccc(OC(F)(F)F)cc1`, the Emax was 50% in experiment [1] (filed as agonist), 50% in experiment [2] (filed as agonist) and more than 80% in experiment [6]. In addition, the concentration for a half-maximal effect (EC50) in experiment [3] was less than 1 nM; in experiment [4] (cho-k1), 1 nM; in experiment [5] (cho-k1) it was 1 nM.
Consider `CNc1cccn2c(=O)n(CC(=O)N[C@@H](C)c3ccc(C)cc3)nc12`, for which the Emax in experiment [1] (filed as agonist), in experiment [2] (filed as agonist) and in experiment [6] was more than 80% throughout. For the same molecule, the EC50 in experiment [3] is less than 1 nM; in experiment [4] it was less than 1 nM; in experiment [5] (cho-k1), 1 nM.
For `Cc1ccc([C@H](C)NC(=O)Cn2nc3ccc(C)cn3c2=O)cc1`, the Emax in experiment [1] (filed as agonist) is 50%; in experiment [2] (filed as agonist) it was 50%; in experiment [6] it was more than 80%. The values for the EC50 in experiment [3], in experiment [4] and in experiment [5] (cho-k1) were less than 1 nM, less than 1 nM and 1 nM, respectively.
Consider `Cc1ccc([C@H](C)NC(=O)Cn2nc3cccnn3c2=O)cc1Cl`, for which the maximum response (Emax) in experiment [1] (filed as agonist) is more than 80%; in experiment [2] (filed as agonist), 50%; in experiment [6] it was more than 80%. For the same molecule, the EC50 is 1 nM in experiment [3] (cho-k1), 1 nM in experiment [4] (cho-k1) and not below 100 nM in experiment [5].
Take `COC1CCN(c2ccn3c(=O)n(CC(=O)N[C@@H](C)c4ccc(OC(F)(F)F)cc4)nc3c2)CC1`: the Emax in experiment [1] (filed as agonist) was more than 80%; in experiment [2] (filed as agonist) it was 50%; in experiment [6] it was 50%. Also, the 50% effective concentration (EC50) in experiment [3] (cho-k1) is 1 nM; in experiment [4] (cho-k1), 1 nM; in experiment [5], not below 100 nM.
`Cc1ccn2c(=O)n(CC(=O)N[C@@H](C)c3ccc(Cl)c(F)c3)nc2c1`: the Emax in experiment [1] (filed as agonist), in experiment [2] (filed as agonist) and in experiment [6] was more than 80% throughout. Further, the EC50 in experiment [3] was less than 1 nM; in experiment [4] it was less than 1 nM; in experiment [5] (cho-k1), 1 nM.
Turning to `Cc1ccc([C@H](C)NC(=O)Cn2nc3ccc(F)cn3c2=O)cc1`, the Emax was 50% in experiment [1] (filed as agonist), more than 80% in experiment [2] (filed as agonist) and more than 80% in experiment [6]. Besides, the EC50 in experiment [3] is less than 1 nM; in experiment [4], less than 1 nM; in experiment [5] (cho-k1) it was 10 nM.
As to `O=C(Cn1nc2cccnn2c1=O)NC1(c2ccc(Cl)cc2)CC1`, the Emax is less than 25% in experiment [1], 50% in experiment [2] (filed as agonist) and 50% in experiment [6]. Further, the concentration giving a half-maximal response (EC50) in experiment [3], in experiment [4] and in experiment [5] was not below 100 nM in each case.
Consider `Cc1cc([C@H](C)NC(=O)Cn2nc3ccccn3c2=O)ccc1Cl`, for which the Emax in experiment [1] (filed as agonist), in experiment [2] (filed as agonist) and in experiment [6] was more than 80% throughout. The results for the EC50 in experiment [3], in experiment [4] (cho-k1) and in experiment [5] (cho-k1) were less than 1 nM, 1 nM and 1 nM, respectively.
On to `C[C@H](NC(=O)Cn1nc2cc(Cl)cnn2c1=O)c1ccc(OC(F)(F)F)cc1`, for which the figures for the Emax in experiment [1], in experiment [2] (filed as agonist) and in experiment [6] were 25%, 50% and more than 80%, respectively. Moreover, the EC50 in experiment [3] (cho-k1) was 1 nM; in experiment [4] (cho-k1) it was 1 nM; in experiment [5], not below 100 nM.
On to `C[C@H](NC(=O)Cn1nc2cc(N3CCCCC3)ccn2c1=O)c1ccc(OC(F)(F)F)cc1`, for which the maximal response (Emax) in experiment [1] (filed as agonist) is more than 80%; in experiment [2] (filed as agonist) it was more than 80%; in experiment [6] it was 50%. Also, the 50% effective concentration (EC50) is less than 1 nM in experiment [3], less than 1 nM in experiment [4] and not below 100 nM in experiment [5].
As for `Cc1ccn2c(=O)n(CC(=O)N[C@@H](C)c3ccc(OC(F)(F)F)cc3)nc2c1`, the Emax was more than 80% in experiment [1] (filed as agonist), 50% in experiment [2] (filed as agonist) and more than 80% in experiment [6]. Moreover, the EC50 in experiment [3] is less than 1 nM; in experiment [4], less than 1 nM; in experiment [5] (cho-k1), 1 nM.
With `COc1ccn2c(=O)n(CC(=O)N[C@@H](C)c3c(C)cc(C)cc3C)nc2c1`, the figures for the Emax in experiment [1], in experiment [2] and in experiment [6] were 25%, 25% and 50%, respectively. In addition, the EC50 was not below 100 nM in experiment [3], 10 nM in experiment [4] (cho-k1) and 10 nM in experiment [5] (cho-k1).

(Values after ChEMBL document CHEMBL4739716, “Gpr139 receptor modulators” (2020).)
